# Assay results reported in patent EP1143251B9, “METHOD AND BIOSENSOR FOR DETECTING ANTIGEN” (priority 1999, dated 2000).
# Tests used:
# [1] = titer based on the toxicity of 2,3,7,8-TCDD (receptor binding, allylhydrocarbon hydroxylase inducing ability, toxic effect); cited from earlier work
# [2] = test system: anti-dioxin monoclonal antibody; conditions: Catalog No. PDI-Dioxin-30, IgG1, host mouse; cited from earlier work
# [3] = test system: anti-dioxin monoclonal antibody; test: surface plasmon resonance (BIAcore 2000) competitive method with HRP-2,3,7,8-TCDD on an antibody-fixed CM5 sensor chip; type: binding, mouse; conditions: average of the four cells
# Text: An anti-dioxin monoclonal antibody was fixed to a sensor chip by the aminocoupling method using BIAcore (registered trademark) 2000.
# As a sensor chip to which the antibody was not fixed, a sensor chip (commercial name CM5) available from BIAcore company was used. The metallic thin film 14 is composed of gold, and its thickness is 50 nm. The fixing body 18 is carboxymethyldextran having no crosslinked structure, and its thickness is 100 nm.
# As the anti-dioxin monoclonal antibody, Catalog No. PDI-Dioxin-30 (Research Diagnostics, Inc., Pleasant Hill Road, Flanders, New Jersey, USA) was used. As the host, mouse was used. This anti-dioxin monoclonal antibody contains 10 mg IgG1 in 3.125 ml (3.2 mg/ml), 0.2M PBS, pH 7.2, and 0.05% sodium azide.
# First, BIAcore's sensor chip CM5 was set in BIAcore (registered trademark) 2000. Then, a mixed solution of N-ethyl-N'-(3-dimethylaminopropyl)carbodiimide hydrochloride (EDC) and N-hydroxysuccinimide (NHS) was injected into BIAcore (registered trademark) 2000 to activate the sensor chip CM5.
# The anti-dioxin monoclonal antibody (1,000 ppm) was centrifuged to replace the solvent. Finally, the antibody was dissolved in 100 µl of 10 mM acetic acid environment solution. The resulting solution in an amount of 50 µl was injected into BIAcore (registered trademark) 2000 at a rate of 5 µl/min to fix the anti-dioxin monoclonal antibody onto the surface of the sensor chip. […]
# Using the sensor chip obtained in Example 1, dioxins were detected by the competitive method. […]
# The diluted 2,3,7,8-TCDD solution of each concentration was mixed with 10 ppm HRP-2,3,7,8-TCDD in BIAcore. […] A change in the disappearance angle due to the binding of 2,3,7,8-TCDD itself to the antibody is too small to be measured by SPR. […]
# Then, the mixture was injected (3 µl/min) into BIAcore 2000, and an SPR signal was measured to determined the disappearance angle. That is, polarized light with a wavelength of 760 nm was projected, and the intensity of reflected light was measured, with the angle of incidence of incident light being varied. […]
SMILES,TEF [1],also measured
"Clc1cc2oc3cc(Cl)c(Cl)c(Cl)c3c2cc1Cl [1,2,3,7,8-Penta CDF]",0.05,
"Clc1cc(Cl)c2c(c1)Oc1c(Cl)cc(Cl)cc1O2 [1,3,6,8-Tetra CDD]",0,
"Clc1cc2c(cc1Cl)Oc1c(Cl)c(Cl)c(Cl)c(Cl)c1O2 [1,2,3,4,7,8-Hexa CDD]",0.1,
"Clc1cc2c(oc3c(Cl)c(Cl)c(Cl)c(Cl)c32)c(Cl)c1Cl [1,2,3,4,6,7,8-Hepta CDF]",0.1,
"Clc1cc2c(oc3cc(Cl)c(Cl)c(Cl)c32)c(Cl)c1Cl [1,2,3,6,7,8-Hexa CDF]",0.1,
"Clc1cc2oc3c(Cl)c(Cl)c(Cl)c(Cl)c3c2cc1Cl [1,2,3,4,7,8-Hexa CDF]",0.1,
"Clc1cc2c(cc1Cl)Oc1c(cc(Cl)c(Cl)c1Cl)O2 [1,2,3,7,8-Penta CDD]",0.5,
"Clc1cc2c(c(Cl)c1Cl)Oc1cc(Cl)c(Cl)c(Cl)c1O2 [1,2,3,6,7,8-Hexa CDD]",0.1,
"Clc1cc2oc3c(Cl)c(Cl)c(Cl)c(Cl)c3c2c(Cl)c1Cl [1,2,3,4,7,8,9-Hepta CDF]",0.1,
"Clc1cc(Cl)c2c(c1)oc1c(Cl)cc(Cl)cc12 [1,3,6,8-Tetra CDF]",0,
"Clc1ccc2c(c1)Oc1cc(Cl)c(Cl)cc1O2 [2,3,7-TriCDD]",,reactivity of the anti-dioxin monoclonal antibody [2]: <20%
Clc1c(Cl)c(Cl)c2c(c1Cl)Oc1c(Cl)c(Cl)c(Cl)c(Cl)c1O2 [Octa CDD],0.001,
"Clc1cc2c(c(Cl)c1Cl)Oc1c(Cl)c(Cl)c(Cl)c(Cl)c1O2 [1,2,3,4,6,7,8-Hepta CDD]",0.01,
Clc1ccc2c(c1)Oc1ccccc1O2 [2-CDD],,reactivity of the anti-dioxin monoclonal antibody [2]: 0.3%
"Clc1cc2c(cc1Cl)Oc1ccccc1O2 [2,3-DCDD]",,reactivity of the anti-dioxin monoclonal antibody [2]: 2.2%
"Clc1cc2c(oc3c(Cl)c(Cl)c(Cl)cc32)c(Cl)c1Cl [2,3,4,6,7,8-Hexa CDF]",0.1,
Clc1c(Cl)c(Cl)c2c(oc3c(Cl)c(Cl)c(Cl)c(Cl)c32)c1Cl [Octa CDF],0.001,
"Clc1cc2c(cc1Cl)Oc1cc(Cl)c(Cl)cc1O2 [2,3,7,8-TCDD]",1,reactivity of the anti-dioxin monoclonal antibody [2]: 100%; ΔRU Average ([3]; Dioxin concentration 3.8 ppb): 234.75 RU; ΔRU Average ([3]; Dioxin concentration 7.6ppb): 197.9 RU; ΔRU Average ([3]; Dioxin concentration 76 ppb): 135.9 RU
"Clc1cc(Cl)c2c(c1)Oc1cc(Cl)cc(Cl)c1O2 [1,3,7,9-Tetra CDD]",0,
"Clc1cc(Cl)c2c(c1Cl)Oc1ccccc1O2 [1,2,4-TriCDD]",,reactivity of the anti-dioxin monoclonal antibody [2]: <1.0%
"Clc1cc2oc3cc(Cl)c(Cl)cc3c2cc1Cl [2,3,7,8-TCDF]",0.1,reactivity of the anti-dioxin monoclonal antibody [2]: 4.6%
"Clc1cc2oc3cc(Cl)c(Cl)c(Cl)c3c2c(Cl)c1Cl [1,2,3,7,8,9-Hexa CDF]",0.1,
"Clc1cc2c(c(Cl)c1Cl)Oc1c(cc(Cl)c(Cl)c1Cl)O2 [1,2,3,7,8,9-Hexa CDD]",0.1,
